Data published in patent US9216216B2, “LprG as a chaperone of immune adjuvants” (Case Western Reserve University, priority 2009, dated 2015).
“Also recorded” adds a separate entry of the source.

B1: Acylated LprG-V91W: acylated LprG with the V91W mutation of the putative glycolipid binding site (protein, UniProt P9WK45 27-236, looked up, variant V91W)
Lipoarabinomannan carrier …: CSSGSKPSGGPLPDAKPLVEEATAQTKALKSAHMVLTVNGKIPGLSLKTLSGDLTTNPTAATGNWKLTLGGSDIDADFVVFDGILYATLTPNQWSDFGPAADIYDPAQVLNPDTGLANVLANFADAKAEGRDTINGQNTIRISGKVSAQAVNQIAPPFNATQPVPATVWIQETGDHQLAQAQLDRGSGNSVQMTLSKWGEKVQVTKPPVS
B2: LprG: Mtb lipoprotein LprG (SEQ ID NO: 2), recombinant 6×His-tagged acylated form (protein, listed as Mycobacterium smegmatis)
chain: MLGMQTRRRLSAVFASLTLATALIAGCSSGSKQSGAPLPDPTSLVKQSADATKNVKSVHLVLSIQGKISGLPIKTLTGDLTTTPATAAKGNATITLGGSDIDANFVVVDGTLYATLTPNKWSDFGKASDIYDVSVLLNPDNGLGNALANFSNAKAEGRETINGQSTIRISGNVSADAVNKIMPQFNATQPVPSTVWVQETGDHQLVQANLQKSSGNSVQVTLSNWGEQVQVTKPPVSS
modifications: 6xHis tag; acylated

Tests used:
[1] = tested on: bone marrow-derived macrophages; type: cell-based, mice
TLR2 [2] = biological target: T1, TLR2 (Homo sapiens, UniProt O60603+Q15399); type: cell-based
T1 construct: YFP; expressed in transfected cells

TLR2 [3] = biological target: T1, TLR2; type: cell-based; remark: listed apart in the source

T1 sequence (O60603 21-784, species assumed): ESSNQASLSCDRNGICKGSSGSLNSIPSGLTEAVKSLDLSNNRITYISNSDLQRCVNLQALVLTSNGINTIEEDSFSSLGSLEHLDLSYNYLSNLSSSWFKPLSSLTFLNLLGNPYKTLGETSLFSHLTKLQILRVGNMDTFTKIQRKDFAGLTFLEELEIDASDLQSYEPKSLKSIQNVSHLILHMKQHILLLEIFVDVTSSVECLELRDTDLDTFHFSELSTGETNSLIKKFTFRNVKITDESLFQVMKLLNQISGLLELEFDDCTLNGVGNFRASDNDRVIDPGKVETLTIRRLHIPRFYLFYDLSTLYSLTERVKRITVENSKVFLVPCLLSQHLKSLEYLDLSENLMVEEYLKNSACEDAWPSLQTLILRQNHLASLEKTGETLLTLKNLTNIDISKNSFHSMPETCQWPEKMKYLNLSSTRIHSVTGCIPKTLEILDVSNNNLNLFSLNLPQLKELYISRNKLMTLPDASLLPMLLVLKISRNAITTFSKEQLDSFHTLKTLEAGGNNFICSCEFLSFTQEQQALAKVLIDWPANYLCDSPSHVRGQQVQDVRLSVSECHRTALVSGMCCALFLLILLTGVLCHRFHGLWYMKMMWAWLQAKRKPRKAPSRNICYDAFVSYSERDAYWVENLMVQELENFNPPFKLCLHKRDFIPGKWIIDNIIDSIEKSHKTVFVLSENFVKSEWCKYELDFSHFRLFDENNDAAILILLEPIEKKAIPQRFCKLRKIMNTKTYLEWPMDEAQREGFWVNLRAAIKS
T1 sequence (Q15399 25-786, species assumed): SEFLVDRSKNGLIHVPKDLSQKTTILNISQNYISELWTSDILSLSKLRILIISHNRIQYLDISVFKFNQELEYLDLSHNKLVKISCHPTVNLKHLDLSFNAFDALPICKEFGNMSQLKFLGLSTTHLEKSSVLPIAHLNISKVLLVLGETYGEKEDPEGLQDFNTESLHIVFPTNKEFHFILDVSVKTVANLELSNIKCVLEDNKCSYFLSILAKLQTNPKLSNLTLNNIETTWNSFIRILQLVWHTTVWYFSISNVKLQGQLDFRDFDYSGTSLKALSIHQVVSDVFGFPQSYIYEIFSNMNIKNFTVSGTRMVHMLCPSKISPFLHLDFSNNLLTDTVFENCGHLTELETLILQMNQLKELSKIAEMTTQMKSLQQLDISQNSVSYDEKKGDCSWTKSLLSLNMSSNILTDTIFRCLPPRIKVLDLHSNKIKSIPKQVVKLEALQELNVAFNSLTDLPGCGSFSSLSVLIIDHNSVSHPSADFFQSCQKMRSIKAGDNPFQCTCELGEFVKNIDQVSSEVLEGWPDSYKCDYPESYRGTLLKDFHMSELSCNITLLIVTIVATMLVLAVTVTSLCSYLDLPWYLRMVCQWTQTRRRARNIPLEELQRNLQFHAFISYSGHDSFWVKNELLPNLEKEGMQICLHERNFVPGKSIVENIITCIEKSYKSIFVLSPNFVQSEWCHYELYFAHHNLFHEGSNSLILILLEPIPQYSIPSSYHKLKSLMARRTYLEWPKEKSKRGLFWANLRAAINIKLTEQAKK

Molecule	TLR dependence of macrophage TNFα response [1]	further results
CpG ODN 1826	intact in knockout cell lines; also recorded: All macrophage types responded	
FSL-1	dependent on TLR2 and TLR6, but not TLR1	
B1		TLR2 agonist activity of acylated protein (TLR2 [2]): significantly less potent than wild-type acylated LprG
B2		TLR2 agonist activity (IL-8 response) (TLR2 [3]): dose-dependent IL-8 response; also recorded: more potent TLR2 agonist than a homologous Mtb lipoprotein, LprA
